Measured values from PMC4741878, “Specific inhibition by synthetic analogs of pyruvate reveals that the pyruvate dehydrogenase reaction is essential for metabolism and viability of glioblastoma cells” (Oncotarget, 2015).

Assays:
[1] = target: T1, pyruvate dehydrogenase (PDH; E1 component of the pyruvate dehydrogenase complex, PDHC) (Rattus norvegicus, UniProt P26284+P49432); assay: overall PDHC reaction by NADH production: Ki in permeabilized mitochondria; IC50 […] with isolated rat heart PDHC ([…] min preincubation); format: biochemical
T1 construct: gene Pdha1; native PDHC partially purified from rat heart or liver; PDHC in alamethicin-permeabilized rat skeletal muscle mitochondria; with PDHB (E1 beta subunit), within the PDHC with DLAT, DLD and PDHX

[2] = target: T1, pyruvate dehydrogenase (PDH; E1 component of the pyruvate dehydrogenase complex, PDHC); assay: overall PDHC reaction by NADH production: Ki in permeabilized mitochondria; IC50 […] with isolated rat heart PDHC at […] pyruvate; format: biochemical

T1 sequence (P26284 30-390): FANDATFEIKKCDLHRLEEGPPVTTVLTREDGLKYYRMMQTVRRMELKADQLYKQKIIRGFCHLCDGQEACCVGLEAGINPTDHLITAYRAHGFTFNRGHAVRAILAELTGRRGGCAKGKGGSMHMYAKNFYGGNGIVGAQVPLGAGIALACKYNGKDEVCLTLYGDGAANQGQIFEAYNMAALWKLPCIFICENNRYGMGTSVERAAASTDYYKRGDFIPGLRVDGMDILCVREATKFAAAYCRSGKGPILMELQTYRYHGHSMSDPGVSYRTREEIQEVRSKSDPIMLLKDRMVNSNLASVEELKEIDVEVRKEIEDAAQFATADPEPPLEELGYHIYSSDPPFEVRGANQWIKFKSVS
T1 sequence (P49432 31-359): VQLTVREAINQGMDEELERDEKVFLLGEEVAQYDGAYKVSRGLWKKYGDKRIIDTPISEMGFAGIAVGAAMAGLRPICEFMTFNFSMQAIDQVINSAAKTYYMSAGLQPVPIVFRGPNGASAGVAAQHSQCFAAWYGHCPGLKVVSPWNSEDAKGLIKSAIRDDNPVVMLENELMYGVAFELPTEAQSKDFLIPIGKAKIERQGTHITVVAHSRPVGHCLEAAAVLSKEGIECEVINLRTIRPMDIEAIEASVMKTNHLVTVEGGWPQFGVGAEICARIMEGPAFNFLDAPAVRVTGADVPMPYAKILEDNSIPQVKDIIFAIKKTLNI
T1 sequence (P08461 78-632 partner): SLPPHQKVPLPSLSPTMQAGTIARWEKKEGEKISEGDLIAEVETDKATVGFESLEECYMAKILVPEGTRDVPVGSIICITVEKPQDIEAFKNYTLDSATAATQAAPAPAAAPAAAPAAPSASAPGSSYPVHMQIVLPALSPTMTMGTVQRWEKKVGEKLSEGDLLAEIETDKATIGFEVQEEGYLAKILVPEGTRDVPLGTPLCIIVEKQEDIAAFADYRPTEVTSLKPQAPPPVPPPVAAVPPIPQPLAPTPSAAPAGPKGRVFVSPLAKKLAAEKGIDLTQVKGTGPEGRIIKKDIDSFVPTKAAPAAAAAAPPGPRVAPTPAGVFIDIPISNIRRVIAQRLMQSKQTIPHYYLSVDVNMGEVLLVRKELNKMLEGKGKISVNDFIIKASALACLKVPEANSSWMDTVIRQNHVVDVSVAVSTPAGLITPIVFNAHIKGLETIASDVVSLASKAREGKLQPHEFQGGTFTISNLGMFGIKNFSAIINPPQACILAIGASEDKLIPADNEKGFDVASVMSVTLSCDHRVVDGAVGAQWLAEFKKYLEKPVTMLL
T1 sequence (Q6P6R2 36-509 partner): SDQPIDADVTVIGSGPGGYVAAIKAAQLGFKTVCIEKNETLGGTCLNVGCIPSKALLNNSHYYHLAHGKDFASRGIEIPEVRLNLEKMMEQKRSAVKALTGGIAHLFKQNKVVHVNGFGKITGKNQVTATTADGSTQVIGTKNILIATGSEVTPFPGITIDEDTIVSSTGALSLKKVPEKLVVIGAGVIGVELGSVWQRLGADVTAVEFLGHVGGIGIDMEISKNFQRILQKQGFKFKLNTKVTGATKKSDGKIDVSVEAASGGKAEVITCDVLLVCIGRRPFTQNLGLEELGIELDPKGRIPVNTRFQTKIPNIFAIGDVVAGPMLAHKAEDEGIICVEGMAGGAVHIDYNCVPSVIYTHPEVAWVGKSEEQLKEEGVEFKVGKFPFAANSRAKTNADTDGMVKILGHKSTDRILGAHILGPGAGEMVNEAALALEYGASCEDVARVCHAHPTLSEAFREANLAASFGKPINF

Work on `CC(=O)[PH](=O)O` [AcPH, acetyl phosphinate] yielded a Ki [1] of 0.1 µM.
With `COP(=O)(O)C(C)=O` [AcPMe, methyl ester of acetyl phosphonate] the Ki [2] was 40 µM.
